Data taken from patent US20120076781A1, “METHODS OF TREATING CANCERS WITH HER3 ANTISENSE OLIGONUCLEOTIDES” (ENZON PHARMACEUTICALS, INC., priority 2009, published 2012).
In the oligonucleotide strings, read from the 5' end, every base follows the letter of its sugar. An asterisk marks phosphorothioate; unmarked linkages are phosphodiester. Other units and linkages are bracketed, terminal groups are in braces. A string of capitals states the bases alone. l = locked nucleic acid (LNA); [5mC] = 5-methylcytosine; d = 2'-deoxy (DNA)

Legend:
[1] = system: HER3 mRNA; experiment: HER3 mRNA knockdown in liver of xenograft-bearing nude mice, different dosing cycle; type: in vivo, mouse; settings: for Liver HER3 mRNA relative to saline treated controls: 15PC3 xenograft mice, every third day
Experimental: (§1) To evaluate the knockdown efficacy of the HER3 oligomeric compounds in vivo, the female nude mice bearing 15PC3 xenografts developed by subcutaneous injection of 5×10^6 cells/mouse into the right axillary flank, were injected intravenously with the oligomers at various doses and injection schedules (i.e. single dose, qd, q3d, q4d). Scrambled oligomer SEQ ID NO: 236 served as a negative control. 24 hours after the last injection, the mice were euthanized and liver and tumor tissues were collected in RNAlater solution (Ambion). Total RNA was purified from the tissues and the levels of HER3 mRNA were determined by quantitative reverse transcription-real time PCR (qRT-PCR) using the QuantiTect Probe RT-PCR kit (Cat#: 204443; Qiagen). GAPDH mRNA served as an internal control.
(§2) The knockdown efficacy of oligomers was evaluated in vivo in nude mice bearing xenograft tumors derived from 15PC3 cells or A549 cells (NSCLC) or N87 cells (gastric carcinoma) using a similar protocol to the one described above in Example 11. […] Tissues were harvested 3 or 4 days after the last injection.
(§3) Data in Tables 6 and 7 are presented as % HER3 mRNA or HIF-1 alpha mRNA relative to saline treated controls in liver and tumor samples after i.v. dosing of animals with the indicated oligomers.

[2] = system: human HER3 mRNA; experiment: HER3 mRNA knockdown in 15PC3 xenograft tumor in nude mice, qd x 5 (qRT-PCR); type: in vivo; settings: i.v., relative to saline controls
Experimental: as §1
(§4) 200 ng of total RNA was used in the PCR reaction. The data analyses were performed by using the ABI-7500 PCR Fast System included software.
(§5) Data in Table 5 are presented as % HER3 mRNA levels relative to saline treated controls in liver and tumor samples after i.v. dosing of animals on 5 consecutive days with oligonucleotides in the doses indicated.

[3] = system: HCC827 gefitinib-sensitive cells; experiment: Colony growth of gefitinib-sensitive HCC827 cells (MTT staining, colony count); type: cell-based, human; settings: 1 μM, 10 days
Experimental: (§6) HCC827 lung adenocarcinoma cells (ATCC CRL-2868) were maintained at 37° C. in a humidified atmosphere of 5% CO2 and 95% air in RPMI medium supplemented with 10% fetal bovine serum. To generate gefitinib resistance, cells were treated with increasing amounts of gefitinib (up to 500 nM) for a period of 3 months.
(§7) HCC287 and HCC287R cells were plated in duplicate at 200 cells/well of a 6-well plate and incubated for 24 hours. Cells were treated with 1 μM of ON180 (SEQ ID NO: 180) and incubated for 10 days, after which cells were stained with MTT and the number of colonies counted. Percent of control was calculated for both HCC827 and […] cells.

[4] = system: HER3 mRNA; experiment: HER3 mRNA knockdown in 15PC3 xenograft tumor, different dosing cycle; type: in vivo, human; settings: every third day
Experimental: as §1
(§8) The knockdown efficacy of oligomers was evaluated in vivo in nude mice bearing xenograft tumors derived from 15PC3 cells or A549 cells (NSCLC) or N87 cells (gastric carcinoma) using a similar protocol to the one described above in Example 11. Oligomers were administered by injection every third day in 2-4 doses. Tissues were harvested 3 or 4 days after the last injection.
as §3

[5] = system: HER3 and P-HER3; experiment: Feedback upregulation of HER3 and P-HER3 by lapatinib in BT474, SKBR3 and MDA453 cells; type: cell-based, human; settings: lapatinib 1 μM, trastuzumab 10 μg/ml, SEQ ID NO: 180 5 μM, 0-48 hours
[6] = system: gefitinib-resistant HCC827 cells; experiment: Colony growth of gefitinib-resistant HCC827R cells (MTT staining, colony count); type: cell-based, human; settings: 1 μM, 10 days
Experimental: as §6, §7

[7] = system: HER3 mRNA; experiment: HER3 mRNA knockdown in A549 (NSCLC) xenograft tumor; type: in vivo, human; settings: 35 mg/kg, q4d x 3, i.v.
Experimental: as §1, §8, §3

[8] = system: Mouse HER3 mRNA; experiment: HER3 mRNA knockdown in liver of nude mice bearing 15PC3 xenografts, qd x 5 (qRT-PCR); type: in vivo; settings: i.v.
Experimental: as §1, §4, §5

[9] = system: HER3 mRNA; experiment: HER3 mRNA knockdown in N87 (gastric carcinoma) xenograft tumor; type: in vivo, human; settings: 25 mg/kg, q3d x 5, i.v.
Experimental: as §1, §2, §3

[10] = system: HIF-1 alpha mRNA; experiment: HIF-1 alpha mRNA in 15PC3 xenograft tumor, different dosing cycle; type: in vivo, human; settings: 60.2 x 2 or 3 mg/kg i.v., every third day
Experimental: as §1, §8, §3

[11] = system: HCC827 human cell line xenograft; experiment: Tumor growth in mouse xenograft model of human non-small cell lung cancer; type: in vivo; settings: at approximately 31 days

Substance: TSASGScScStSgStScSaScStStSCSTSC (antisense lT*lA*lG*dC*dC*dT*dG*dT*dC*dA*dC*dT*dT*l[5mC]*lT*l[5mC]) [SEQ ID NO: 180, β-D-oxy-LNA/DNA phosphorothioate gapmer antisense oligonucleotide targeting HER3]
- Liver HER3 mRNA relative to saline treated controls ([1]; 60.2 x 4 mg/kg i.v.): 31.8 ± 5%
- Liver HER3 mRNA relative to saline treated controls ([1]; 60.2 x 2 or 3 mg/kg i.v.): 6.9 ± 3.6%
- HER3 Liver ([1]; A549 xenograft mice, 35 mg/kg, q4d x 3, i.v.): 31.8 ± 5.7 % saline control
- HER3 Liver ([1]; N87 xenograft mice, 25 mg/kg, q3d x 5, i.v.): 24.7 ± 3.1 % saline control
- HER3 mRNA Tumor ([2]; 19.8 mg/kg): 83.1 ± 19.5%
- HER3 mRNA Tumor ([2]; 25.6 mg/kg): 65 ± 20.2%
- HER3 mRNA Tumor ([2]; 31.3 mg/kg): 37 ± 5.8%
- HER3 mRNA Tumor ([2]; 66 mg/kg): 32.3 ± 9.7%
- HER3 mRNA Tumor ([2]; 85.3 mg/kg): 25.8 ± 4.1%
- reduction in cell growth as compared to the untreated control [3]: about 50%
- Tumor HER3 mRNA relative to saline treated controls ([4]; 60.2 x 4 mg/kg i.v.): 54.2 ± 9.1%
- Tumor HER3 mRNA relative to saline treated controls ([4]; 60.2 x 2 or 3 mg/kg i.v.): 47.1 ± 2.2%
- prevention of feedback upregulation of HER3 and P-HER3 expression by lapatinib [5]: able to prevent feedback upregulation of HER3 and P-HER3 expression by lapatinib
- reduction in cell growth as compared to the untreated control [6]: greater than 80%
- HER3 Tumor [7]: 54.6 ± 15.2 % saline control
- HER3 mRNA Liver ([8]; 19.8 mg/kg): 1.7 ± 0.6 % of Sal ctrl
- HER3 mRNA Liver ([8]; 25.6 mg/kg): 3 ± 0.3 % of Sal ctrl
- HER3 mRNA Liver ([8]; 31.3 mg/kg): 1.6 ± 0.3 % of Sal ctrl
- HER3 mRNA Liver ([8]; 66 mg/kg): 6 ± 5.3 % of Sal ctrl
- HER3 mRNA Liver ([8]; 85.3 mg/kg): 1 ± 0.3 % of Sal ctrl
- HER3 Tumor [9]: 46.6 ± 13.4 % saline control
- Tumor Hif1A mRNA relative to saline treated controls [10]: 101 ± 7.3%
- Mean tumor volume reduced vs. saline control ([11]; 30 mg/kg i.v.): 65.5%
- Mean tumor volume reduced vs. saline control ([11]; 45 mg/kg i.v.): 81.3%
